We go through 5 compounds from article doi:10.64898/2025.12.21.695763v2 (biorxiv, 2026).

One may read the Kd as the concentration at which binding is half-saturated.

This test deals with T1, Mth α-subunit (NrdE) of Class Ib ribonucleotide reductase (Mycolicibacterium thermoresistibile, UniProt G7CEK2).
T1 sequence (G7CEK2 1-693): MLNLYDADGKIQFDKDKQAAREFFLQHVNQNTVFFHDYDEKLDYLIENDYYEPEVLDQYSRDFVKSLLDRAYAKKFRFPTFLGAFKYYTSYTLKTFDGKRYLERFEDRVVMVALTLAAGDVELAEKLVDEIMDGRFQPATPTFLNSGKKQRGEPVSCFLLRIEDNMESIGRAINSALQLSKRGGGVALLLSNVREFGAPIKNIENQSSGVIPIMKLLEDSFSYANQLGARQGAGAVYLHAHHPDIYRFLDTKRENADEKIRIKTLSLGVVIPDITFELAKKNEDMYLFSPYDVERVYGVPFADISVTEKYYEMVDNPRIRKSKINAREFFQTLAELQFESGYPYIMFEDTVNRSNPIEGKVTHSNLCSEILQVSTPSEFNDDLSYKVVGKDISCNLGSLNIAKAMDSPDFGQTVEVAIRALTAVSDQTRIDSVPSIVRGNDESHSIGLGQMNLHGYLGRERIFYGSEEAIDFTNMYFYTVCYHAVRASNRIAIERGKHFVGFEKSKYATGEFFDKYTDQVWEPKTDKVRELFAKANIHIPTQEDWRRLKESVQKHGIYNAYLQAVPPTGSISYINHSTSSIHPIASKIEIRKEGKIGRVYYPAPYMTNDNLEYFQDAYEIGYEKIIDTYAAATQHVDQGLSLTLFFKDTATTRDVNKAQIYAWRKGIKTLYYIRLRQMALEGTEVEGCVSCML
In words: isothermal titration calorimetry. It counts as binding. A general note: ITC needs no label: the signal is the heat of the interaction.

On to `Cc1cn([C@@H]2O[C@H](COP(=O)(O)OP(=O)(O)OP(=O)(O)O)[C@@H](O)[C@H]2O)c(=O)[nH]c1=O` [TTP], for which binding was put at a Kd of 0.64 µM.
`Nc1ncnc2c1ncn2[C@H]1C[C@H](O)[C@@H](COP(=O)(O)OP(=O)(O)OP(=O)(O)O)O1` [dATP]: the Kd was determined as 1.1 µM.
To `Nc1ccn([C@H]2C[C@H](O)[C@@H](COP(=O)(O)OP(=O)(O)OP(=O)(O)O)O2)c(=O)n1` [dCTP] belongs 6.6 µM; to `Nc1nc2c(ncn2[C@H]2C[C@H](O)[C@@H](COP(=O)(O)OP(=O)(O)OP(=O)(O)O)O2)c(=O)[nH]1` [dGTP], 4.6 µM; to `Cc1cn([C@H]2C[C@H](O)[C@@H](COP(=O)(O)OP(=O)(O)OP(=O)(O)O)O2)c(=O)[nH]c1=O` [dTTP], 3.3 µM.
